Data on two compounds can be found in patent publication US6878725B2, “Serine protease inhibitors” (Eli Lilly and Company, priority 2001, dated 2005).

In turn, `O=C(N[C@@H](C(=O)N1CCC(Nc2ccccn2)CC1)c1ccccc1)c1ccc2cc[nH]c2c1` [Example 39, 1-(Indole-6-carbonyl-D-phenylglycinyl)-4-(pyridin-2-ylamino)piperidine] displayed a melting point of 128 to 134 °C.
Take `Cl.O=C(N[C@@H](C(=O)N1CCC(Nc2ccncc2)CC1)c1ccccc1)c1ccc2cc[nH]c2c1`: the melting point was 205 to 215 °C.
